The record followed here is paper PMC11610669, “A Spectroscopic Study on the Amyloid‐β Interaction with Clicked Peptide‐Porphyrin Conjugates: a Vision Toward the Detection of Aβ Peptides in Aqueous Solution” (Chembiochem, 2024).

The test has as its target Aβ42 (Homo sapiens, UniProt P05067). Briefly: Grating-Coupled Interferometry (GCI) binding to immobilized Aβ42. The following applies: GCI fit quality parameter. The protocol: The Grating‐Coupled Interferometry (GCI) is a widely used analytical technique for characterizing intermolecular interactions. It allows quantitative measurements of both the affinity and the kinetics of the binding events. This high sensitivity label‐free method was exploited to measure the interactions of Aβ42 with Cu‐Ph‐Pep , Ph‐Pep , and Zn‐Ph‐Pep (Figure 5S). Control experiments with pristine MCPTPyP and the peptide GPGKLVFF ( Pep ) were carried out for comparison. The calculated association and dissociation kinetic constants (kon and koff, respectively) and the thermodynamic binding constant (KD), are summarized in Table 1. The obtained values indicate that all the conjugates show good affinities with Aβ42. It is also clear from Table 1 that the peptide moiety is fundamental for the molecular recognition of the Aβ42 peptide.[48] […] Nevertheless, it is important to emphasize that the interaction with Aβ42 is primarily mediated by the peptide rather than by the porphyrin macrocycle. We next investigated whether these peptide derivatives could be employed as molecular probes for the detection of Aβ42 aggregated species. A new set of CD experiments was then carried out with Aβ42 at 20 μM both in the absence and in the presence of the porphyrin‐peptide conjugates at 1 : 1 molar ratio in the UV (195–350) and Visible (350–500) regions. […] The signal rapidly evolved toward the typical β‐sheet profile (already within 24 h) with a single minimum at 216 nm, an x‐axis intercept at 202 nm and a maximum shift at a wavelength 195 nm.[49] […] For the sake of comparison, the CD spectra of the porphyrin‐peptide conjugates at 20 μM were also recorded in the same experimental conditions, both in the far‐UV and Visible regions (Figure 6S).
The experiments were performed on a Creoptix WAVE system (Creoptix). Borate buffer (100 mM sodium borate pH 9.0, 1 M NaCl) was used for chip conditioning. Aβ42 peptide (20 μg/ml in Na Acetate pH 4.5) was immobilized on 4PCH WAVE chips (quasiplanar polycarboxylate surface; Creoptix) according to the manufacturer instructions at a final density of 1910±40 pg/mm^2. Single‐cycle sequential injections of dilution series for each Porphyrin‐Peptide conjugates in running buffer (PBS, 0.005 % Tween 20, 1 % DMSO, 0.2 mg/ml BSA) were performed at 25 °C, using a flow rate of 100 μl/min. In details, for the conjugate Cu‐Ph‐Pep , 1 : 2 dilution series starting from 200 μM were injected for 10 s association time, 45 s dissociation time, followed by a dissociation time of 600 s for the last higher concentration injection. Finally, for the conjugates Ph‐Pep and Zn‐Ph‐Pep , 1 : 2 dilution series starting from 50 μM and 100 uM, respectively, were injected for 30 s association time, 45 s dissociation time, followed by a dissociation time of 600 s for the last higher concentration injection. Blank injections were used for double referencing and a DMSO calibration curve for bulk correction. Analysis and correction of the obtained data were performed using the Creoptix WAVE control software (correction applied: X and Y offset; DMSO calibration; double referencing). Mass transport binding models with bulk correction were used to fit all experiments. All the experiments have been performed at least in triplicate.
Figure 5S. Quantitative binding kinetics of Aβ42 vs a) MCPTPyP; b) Cu-Ph-Pep; c) Ph-Pep; d) Zn-Ph-Pep; and e) Pep measured by GCI. All curves were blank subtracted. Experiments were performed in triplicate. All the quality assessments (i.e., χ2 shown in Table 1 of the main text , parameter errors, and residual plots were acceptable; the sensorgrams had sufficient curvatures an d the kinetic constant k off were within the measurable range) were fulfilled. Descriptive Statistical Analysis was employed to calculate the mean of the obtained values of k on, koff and KD as a measure of central tendency and standard deviations of the former values were computed as a measure of dispersion.
Figure 6S. […]

Each structure is given as a SMILES string. Square brackets hold non-standard residues; d marks the D form. Peptide text beside a SMILES is read from it. Lys(N3) = [N-]=[N+]=NCCCC[C@H](N)C(=O)O

Aβ42, sequence (P05067 672-713 limits assumed): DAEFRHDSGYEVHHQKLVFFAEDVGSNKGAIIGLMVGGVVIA

For `CC(=O)NCC(=O)N[C@@H](CCCCN=[N+]=[N-])C(=O)N1CCC[C@H]1C(=O)NCC(=O)N[C@@H](CCCCN)C(=O)N[C@@H](CC(C)C)C(=O)N[C@H](C(=O)N[C@@H](Cc1ccccc1)C(=O)N[C@@H](Cc1ccccc1)C(N)=O)C(C)C` [Pep] (Ac-G[Lys(N3)]PGKLVFF-NH2), the “χ^2 (average of the squared residuals, fitting confidence)” value was found to be 0.79±0.08.
